Data published in patent publication US20230057309A1, “Inhibitors of DREAM Complex Assembly and/or Function For Use In Repairing DNA Damage” (priority 2021, published 2023).

What was measured:
U2OS cells [1] = assay: UV-induced apoptosis in quiescent U2OS cells (Annexin V / 7-AAD FACS); assay type: cell-based, human; details: UV 2 mJ·cm-2; 24 h after UV; harmine 10 μM, INDY 25 μM
Experimental: (§1) U2OS were cultured in DMEM, high glucose GlutaMAX Supplement, Pyruvate (Thermo Fisher Scientific, 31966047) with 10% fetal bovine serum (FBS; Biochrom GmbH, S0615) and 1% Penicillin-Streptomycin (Thermo Fisher Scientific, 15140112). Cells were kept at 37° C. in a 5% CO2 incubator (Binder). Cell dissociation from the plates was performed with Accutase (Sigma, A6964). Cells were cultivated in FBS-free medium for 48 hours before genotoxic treatment were applied. […] Before the genotoxic treatment, cells were washed with FBS-free medium. For the UV treatment, medium was removed from the plates and cells were irradiated using 254 nm UV-C light Phillips UV6 bulbs. The MMS treatment was performed by adding MMS at 2 mM for 2 hours, followed by 3 washes with FBS-free medium. Quantification via FACS of cell death and apoptosis was performed 24 hours after genotoxic treatment.
(§2) Collected cells were incubated in Annexin V Binding buffer (BioLegend, 422201) with Pacific Blue Annexin V (BioLegend, 640917) and 7-AAD (Thermo Fisher Scientific, 00699350) at 4° C. for 15 minutes. Cells were measured using a MACSQuant VYB (Miltenyi Biotec) and analyzed using FlowJo (BD).

U2OS cells [2] = assay: DNA repair kinetics in U2OS cells, γH2AX antibody staining after UV; assay type: cell-based, human; details: quiescent cells, hours after UV; harmine 10 μM, INDY 25 μM
Experimental: Before the genotoxic treatment, cells are washed with FBS-free medium. For the UV treatment, medium is removed from the plates and cells are irradiated using 254 nm UV-C light Phillips UV6 bulbs. The MMS treatment is performed, e.g., by adding MMS at 2 mM for 2 hours, followed by 3 washes with FBS-free medium. Cells are fixed in a solution comprising PFA on HistoBond+ Adhesion Microscope Slides (Marienfeld, 0810461). To estimate the total amount of DNA damage per cell, the fixed cells are incubated overnight at 4° C. in PBS comprising anti-γH2AX antibody (Mouse anti-phospho-Histone H2A.X (Ser139), clone JBW301, Millipore, Cat #: 05-636), then washed 5 times 10 minutes in a suitable buffer at RT, prior to incubation for at least two hours with a secondary antibody. Finally, the slides are washed another 5 times 10 minutes in PBS-T and dried overnight. The next morning, slides are sealed with a cover slip.

U2OS cells [3] = assay: MMS-induced apoptosis in quiescent U2OS cells (Annexin V / 7-AAD FACS); assay type: cell-based, human; details: MMS 2 mM for 2 hours; 24 h after treatment; harmine 10 μM, INDY 25 μM
Experimental: as §1, §2

DYRK1A kinase = DYRK1A kinase (Homo sapiens, UniProt Q13627); details: cited from earlier work
DREAM target genes = assay: RNA-seq of quiescent (serum-starved) U2OS cells treated with DYRK1A inhibitors; assay type: cell-based, human; details: 24 h treatment, harmine 10 μM, INDY 25 μM; for number of the 67 DNA repair genes bound by DREAM that were upregulated: FDR<0.01
Experimental: as §1
For the qPCRs and RNA-seq on L1 worms, around 10.000 (qPCR) or 40.000 (RNA-seq) bleach-synchronized L1 worms in triplicates (qPCR) or quadruplicates (RNA-seq) per strain and condition were placed in seeded NGM plates and left at 20° C. for 3 hours. Posteriorly, they were irradiated with a 310 nm UV-B light Philips UV6 bulb in a Waldmann UV236B irradiation device or left unirradiated, and left for 6 more hours to allow the DNA damage related transcriptional changes to be taking place. After this, worms were collected, washed three times with M9 buffer, and the pellet was placed in a tube containing 1 ml of TRIzol™ (Invitrogen, 15596018) and 1 mm zirconia/silica beads (Biospec Products, 11079110z). To extract the RNA, worms were first disrupted with a Precellys24 (Bertin Instruments, P000669-PR240-A), and then the RNA isolation was performed by using the RNeasy Mini Kit (QIAGEN, 74106) following the manufacturer's specifications, except for the use of 1-bromo-3-chloropropane (Sigma, B9673) instead of chloroform. The RNA was quantified using NanoDrop™ 8000 (ThermoFisher, ND-8000-GL). […] Cells were disrupted with RLT buffer and homogenized with QIAshredder spin columns (QIAGEN, 79656).
The human RNA-seq data were processed with Salmon-1.1 (Patro et al., 2017) against a decoy-aware transcriptome (gencode.v37 transcripts and the GRCh38.primary_assembly genome) with the following parameter: --validateMappings -gcBias -seqBias. The output was imported and summarized to the gene-level with tximport (1.14.2) (Soneson, Love and Robinson, 2016) and differential gene analysis was done with edgeR (3.28.1) (Robinson, McCarthy and Smyth, 2009).

[4] = test system: Podocyte-specific Ercc1 knockout mice; assay: Kidney function (proteinuria) in podocyte-specific Ercc1 knockout mice; assay type: in vivo, mouse; details: 10 mg/kg/day for 4 weeks from 3 weeks of age; urine 8 and 11 days afterwards
Experimental: Proteinuria as endpoint for kidney dysfunction was assessed by Coomassie brilliant blue staining in urine 8 days (FIG. 7A) and 11 days (FIG. 7B) afterwards.
Proteinuria as endpoint for kidney dysfunction was assessed in urine 8 days and 11 days afterwards by assessing overall protein levels in urine samples via Coomassie brilliant blue staining after electrophoretic separation in a polyacrylamide gel.

Ercc1−/− mice = assay: Photoreceptor cell loss in Ercc1 knockout mouse model of premature aging (TUNEL staining of retina); assay type: in vivo; details: 10 mg/kg i.p. 3 times/week from P3, retina at P15
Text: Mice were sacrificed at postnatal day P15 for retina tissue isolation. Tissues were embedded in optimal cutting temperature (OCT) compound, cryosectioned and stained using in situ cell detection kit (TUNEL staining) (11684817910, Roche).

[5] = target: T1, monoamine oxidase A (MAOA) (Homo sapiens, UniProt P21397); details: cited from earlier work
T1 sequence (P21397 1-527): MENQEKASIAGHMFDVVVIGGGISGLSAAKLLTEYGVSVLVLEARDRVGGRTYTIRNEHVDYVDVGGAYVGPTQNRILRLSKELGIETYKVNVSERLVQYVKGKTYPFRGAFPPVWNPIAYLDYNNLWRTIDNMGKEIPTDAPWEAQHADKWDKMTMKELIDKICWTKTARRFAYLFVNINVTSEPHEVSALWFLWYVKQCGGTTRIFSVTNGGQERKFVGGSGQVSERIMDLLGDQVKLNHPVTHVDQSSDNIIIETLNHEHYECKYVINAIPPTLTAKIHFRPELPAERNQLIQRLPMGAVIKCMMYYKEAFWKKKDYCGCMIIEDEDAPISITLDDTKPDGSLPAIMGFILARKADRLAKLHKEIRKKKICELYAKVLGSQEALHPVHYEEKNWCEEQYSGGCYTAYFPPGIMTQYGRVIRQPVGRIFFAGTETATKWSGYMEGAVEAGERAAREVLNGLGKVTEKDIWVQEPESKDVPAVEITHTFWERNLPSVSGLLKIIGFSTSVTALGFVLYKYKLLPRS

## CCN1/C(=C/C(C)=O)Sc2ccc(O)cc21 [INDY, (1Z)-1-(3-ethyl-5-hydroxy-2(3H)-benzothiazoylidene)-2-propanone]
U2OS cells [1]
  UV-induced apoptosis (annexin V positive + annexin V/7-AAD positive cells) vs mock treated cells: highly significant reduction in UV-induced apoptosis
U2OS cells [2]
  γH2AX amount after UV irradiation vs control cells: significantly lower amounts of γH2AX
U2OS cells [3]
  resistance to MMS (apoptotic cells): boosted the resistance to the alkylating agent MMS
DYRK1A kinase
  DYRK1A inhibition, selectivity: highly selective DYRK1A inhibitor
DREAM target genes
  expression of DREAM target genes: upregulation of DREAM target genes
  number of the 67 DNA repair genes bound by DREAM that were upregulated: 46

## COc1ccc2c(c1)[nH]c1c(C)nccc12 [harmine]
[4]
  proteinuria (Coomassie staining of urine): mitigation of proteinuria
Ercc1−/− mice
  apoptosis in photoreceptor cells (TUNEL): prevented apoptosis in photoreceptor cells
[5]
  MAOA inhibition: could also inhibit monoamine oxidase A (MAOA)
U2OS cells [1]
  UV-induced apoptosis (annexin V positive + annexin V/7-AAD positive cells) vs mock treated cells: highly significant reduction in UV-induced apoptosis
U2OS cells [3]
  resistance to MMS (apoptotic cells): boosted the resistance to the alkylating agent MMS
DREAM target genes
  expression of DREAM target genes: upregulation of DREAM target genes
  number of the 67 DNA repair genes bound by DREAM that were upregulated: 58
